{"source": "patent US20210038579A1", "about": "“Treatment Of Patients With Classic Fabry Disease” (Amicus Therapeutics, Inc., priority 2018, published 2021)", "key": {"[1]": {"tested_on": "GL-3 inclusions per kidney interstitial capillary", "test": "Phase 3 study, ERT-naïve Fabry patients: kidney histology assessment", "type": "in vivo, human", "source_text": "Kidney Histology Assessment. Each patient underwent a baseline kidney biopsy, as well as repeat kidney biopsies at 6 and 12 months. The number of GL-3 inclusions per kidney interstitial capillary per patient at baseline, and at 6 and 12 months was quantitatively assessed in 300 capillaries by 3 independent pathologists blinded to treatment and visit. All values for each individual biopsy at a given time were averaged prior to statistical analysis.\nStatistical Analyses for Kidney Interstitial Capillary GL-3 Substrate. The primary Stage 1 (6 month) endpoint (i population with baseline biopsies, n=64) was the proportion of patients in the migalastat and placebo groups with a ≥50% reduction in GL-3 inclusions per kidney interstitial capillary. Two other Stage 1 endpoints were assessed (modified-ITT population: randomized patients with paired baseline and month 6 biopsies; n=60): percent change in GL-3 inclusions per kidney interstitial capillary, and percent of interstitial capillaries with zero GL-3 inclusions.\nEfficacy analyses for GL-3 inclusions per kidney interstitial capillary and other pre-specified endpoints in Stage 2 (months 6-12) and the open-label-extension (months 12-24) were based on the modified intention to treat (mITT)—population consisting of randomized patients with mutant α-Gal A enzyme shown to be suitable for migalastat treatment by the validated assay; n=50).\nFor all outcomes except GL-3 inclusions per kidney interstitial capillary, data are pooled for patients within phenotype subgroups regardless of treatment allocation for the first six months (migalastat or placebo)."}, "[2]": {"target": "T1, α-Gal A mutant form p.Gly85Asp (c.254 G > A) (Homo sapiens, UniProt P06280, G85D)", "T1 construct": "expressed in transfected cells; host or cells: HEK-293", "T1 sequence (P06280 32-429 G85D)": "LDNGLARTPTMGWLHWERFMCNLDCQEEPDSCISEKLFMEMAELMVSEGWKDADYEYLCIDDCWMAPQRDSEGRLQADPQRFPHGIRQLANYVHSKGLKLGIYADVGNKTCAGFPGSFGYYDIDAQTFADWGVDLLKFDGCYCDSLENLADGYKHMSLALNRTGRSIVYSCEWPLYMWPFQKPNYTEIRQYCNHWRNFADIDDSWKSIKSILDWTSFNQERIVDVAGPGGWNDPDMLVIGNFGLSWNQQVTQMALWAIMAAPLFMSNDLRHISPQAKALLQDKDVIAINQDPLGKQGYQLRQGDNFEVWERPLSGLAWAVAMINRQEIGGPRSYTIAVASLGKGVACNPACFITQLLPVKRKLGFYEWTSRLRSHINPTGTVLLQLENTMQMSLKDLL", "test": "HEK assay: α-Gal A activity in HEK-293 cell lysate with migalastat", "type": "cell-based", "protocol": "(§1) Such mutations are also referred to herein as “HEK assay amenable” mutations.\n(§2) In this assay, cDNA constructs are created. The corresponding α-Gal A mutant forms are transiently expressed in HEK-293 cells. Cells are then incubated±migalastat (17 nM to 1 mM) for 4 to 5 days. After, α-Gal A levels are measured in cell lysates using a synthetic fluorogenic substrate (4-MU-α-Gal) or by western blot. This has been done for known disease-causing missense or small in-frame insertion/deletion mutations."}, "[3]": {"target": "T2, α-Gal A mutant form p.Leu36Trp (c.107 T > G) (Homo sapiens, UniProt P06280, L36W)", "T2 construct": "expressed in transfected cells; host or cells: HEK-293", "T2 sequence (P06280 32-429 L36W)": "T1 sequence (P06280 32-429 G85D) with L5W, D54G", "test": "HEK assay: α-Gal A activity in HEK-293 cell lysate with migalastat", "type": "cell-based", "protocol": "as §1, §2"}, "[4]": {"test": "Phase 3 study, ERT-naïve Fabry patients: renal function assessment (eGFRCKD-EPI, mGFRiohexol)", "type": "in vivo, human", "protocol": "Patient Enrollment. […] Study Design. […] Renal Function Assessment. Annualized rates of change (mL/min/1.73 m^2/year) were calculated using Chronic Kidney Disease Epidemiology Collaboration-[…]) and measured iohexol clearance-mGFRiohexol). For all outcomes except GL-3 inclusions per kidney interstitial capillary, data are pooled for patients within phenotype subgroups regardless of treatment allocation for the first six months (migalastat or placebo)."}, "[5]": {"test": "Phase 3 study, ERT-naïve Fabry patients: safety analysis and adverse events", "description": "(§3) Study Design. Following eligibility-baseline assessments (2 months), patients were randomized to Stage 1—6 months of double-blind administration of 150 mg migalastat hydrochloride or placebo every other day. All patients completing Stage 1 were eligible to receive open-label migalastat in Stage 2 (months 6-12) and for an additional year (months 13-24) thereafter. […] Study completers were eligible to enroll in the open-label extension study for up to 5 years.\n(§4) Safety Analysis and Adverse Events. Randomized patients receiving ≤1 dose were included in the safety analysis, which comprised vital signs, physical exams, electrocardiograms, clinical labs, and adverse events."}, "[6]": {"details": "human, in vivo", "description": "as §3, §4"}, "α-Gal A mutant forms": {"tested_on": "α-Gal A mutant forms", "test": "HEK assay: means over groups of GLA mutations found in enrolled patients", "type": "cell-based, human", "details": "10 μM of migalastat", "protocol": "as §1, §2"}, "[7]": {"details": "+10 μM migalastat, HEK-293 cell lysate, mean ± SEM, n = 20"}, "[8]": {"details": "HEK293, 10 μM migalastat minus baseline, read-out: Absolute increase at 10 μM (% WT)"}, "[9]": {"details": "overall amenable population, baseline to month 24"}, "[10]": {"details": "open-label-extension, 6/57 patients"}, "[11]": {"details": "GLA mutations of enrolled patients reported as associated with the classic phenotype in the literature"}}, "note": "Positions count from the first letter of the chain named.", "data": [{"compound": "OC[C@H]1NC[C@H](O)[C@@H](O)[C@H]1O", "note": "[migalastat]", "values": [{"measurement": "mean (SD) change in GL-3 inclusions per kidney interstitial capillary", "setting": "[1]; classic male patients switched from placebo to migalastat at month 6, next 6 months", "value": "−0.7 (0.91)"}, {"measurement": "mean change in GL-3 inclusions", "setting": "[1]; total amenable patient population, 6 months of migalastat treatment", "value": "−0.25"}, {"measurement": "mean change in GL-3 inclusions", "setting": "[1]; total patient population, after switching from placebo to migalastat at month 6", "value": "−0.33"}, {"measurement": "α-Gal A activity at 10 μM (fold over baseline)", "setting": "[2]; 10 μM migalastat", "value": 5.10, "unit": "fold over baseline"}, {"measurement": "+Migalastat α-Gal A activity", "setting": "[2]; [7]", "value": "4534 ± 135", "unit": "nmol/mg/h"}, {"measurement": "+Migalastat α-Gal A activity % WT", "setting": "[2]; [7]", "value": "14.3 ± 0.9", "unit": "% WT"}, {"measurement": "activation at 10 µM", "setting": "[2]; [8]", "value": 11.6, "unit": "%"}, {"measurement": "α-Gal A activity at 10 μM (fold over baseline)", "setting": "[3]; 10 μM migalastat", "value": 21.49, "unit": "fold over baseline"}, {"measurement": "+Migalastat α-Gal A activity", "setting": "[3]; [7]", "value": "5182 ± 463", "unit": "nmol/mg/h"}, {"measurement": "+Migalastat α-Gal A activity % WT", "setting": "[3]; [7]", "value": "16.6 ± 2.1", "unit": "% WT"}, {"measurement": "activation at 10 µM", "setting": "[3]; [8]", "value": 15.9, "unit": "%"}, {"measurement": "mean (SD) annualized rate of change in eGFRCKD-EPI", "setting": "[4]; classic male subgroup, baseline (or month 6 for patients randomized to placebo) to month 24, 150 mg migalastat hydrochloride every other day", "value": "−0.3 (3.76) mL/min/1.73 m^2"}, {"measurement": "mean (SD) annualized rate of change in mGFRiohexol", "setting": "[4]; classic males, baseline (or month 6) to month 24", "value": "−3.0 (6.04) mL/min/1.73 m^2"}, {"measurement": "median change in mGFRiohexol", "setting": "[4]; classic males, baseline to month 24", "value": -1.03, "unit": "mL/min/1.73 m²"}, {"measurement": "reduction in mGFRiohexol in one classic patient", "setting": "[4]; one classic patient, month 6 to month 24", "value": -16, "unit": "mL/min/1.73 m²"}, {"measurement": "mean (SD) annualized rate of change in eGFRCKD-EPI", "setting": "[4]; other patients subgroup, baseline (or month 6) to month 24", "value": "−0.3 (4.47) mL/min/1.73 m^2"}, {"measurement": "mean (SD) annualized rate of change in mGFRiohexol", "setting": "[4]; other patients, baseline (or month 6) to month 24", "value": "−1.0 (6.66) mL/min/1.73 m^2"}, {"measurement": "median change in mGFRiohexol", "setting": "[4]; other patients, baseline to month 24", "value": -0.34, "unit": "mL/min/1.73 m²"}, {"measurement": "annualized change in eGFRCKD-EPI", "setting": "[4]; [9]", "value": "−0.3 (0.66) mL/min/1.73 m^2"}, {"measurement": "annualized change in mGFRiohexol", "setting": "[4]; [9]", "value": "−1.5 (1.33) mL/min/1.73 m^2"}, {"measurement": "patients with nasopharyngitis", "setting": "[5]; Stage 1, 6/34 patients receiving migalastat", "value": 18, "unit": "%"}, {"measurement": "patients with headache", "setting": "[5]; Stage 1, 12/34 patients receiving migalastat", "value": 35, "unit": "%"}, {"measurement": "patients experiencing serious adverse events", "setting": "[5]; Stage 1, migalastat group", "value": 2, "unit": "patients"}, {"measurement": "patients experiencing serious adverse events", "setting": "[5]; Stage 2", "value": 5, "unit": "patients"}, {"measurement": "patients with procedural pain (related to kidney biopsies)", "setting": "[5]; Stage 2, 7/63 patients", "value": 11, "unit": "%"}, {"measurement": "patients with headache", "setting": "[5]; Stage 2, 9/63 patients", "value": 14, "unit": "%"}, {"measurement": "end-stage renal disease, cardiac death, stroke", "setting": "[5]; as defined in Banikazemi et al.", "value": "no progression to end-stage renal disease, no cardiac death and no stroke"}, {"measurement": "patients who discontinued migalastat due to serious adverse events", "setting": "[5]; both deemed unrelated to migalastat", "value": "Two"}, {"measurement": "serious adverse events assessed as possibly related to migalastat by the investigator", "setting": "[5]; fatigue and paresthesia, same patient, months 12-24, resolved", "value": "Two"}, {"measurement": "adverse events leading to migalastat discontinuation", "setting": "[5]; human, in vivo", "value": "No adverse events led to migalastat discontinuation"}, {"measurement": "vital sign, physical findings, laboratory, and ECG parameters", "setting": "[5]; human, in vivo", "value": "did not reveal any clinically relevant effect"}, {"measurement": "transient ischemic attack", "setting": "[5]; judged unrelated to migalastat", "value": "single case"}, {"measurement": "severity of adverse events", "setting": "[5]; most adverse events", "value": "mild or moderate in severity"}, {"measurement": "patients experiencing serious adverse events", "setting": "[5]; open-label-extension", "value": 11, "unit": "patients"}, {"measurement": "patients with (treatment-emergent) proteinuria", "setting": "[5]; open-label-extension (months 12-24), 9/57 patients", "value": 16, "unit": "%"}, {"measurement": "patients with bronchitis", "setting": "[5]; [10]", "value": 11, "unit": "%"}, {"measurement": "patients with headache", "setting": "[5]; [10]", "value": 11, "unit": "%"}, {"measurement": "patients in whom 24-hour urine protein remained stable during migalastat treatment", "setting": "[5]; patients with baseline proteinuria <300 mg/24-h", "value": "23/28"}, {"measurement": "deaths", "setting": "[6]", "value": "No deaths were reported"}, {"measurement": "mean absolute increase in α-Gal A activity", "setting": "α-Gal A mutant forms; [11]", "value": "24.8 % of WT"}, {"measurement": "mean activity increase over baseline", "setting": "α-Gal A mutant forms; [11]", "value": 8.2, "unit": "fold over baseline"}, {"measurement": "mean absolute increase in α-Gal A activity", "setting": "α-Gal A mutant forms; all other mutations", "value": "24.5 % of WT"}, {"measurement": "mean activity increase over baseline", "setting": "α-Gal A mutant forms; all other mutations", "value": 6.8, "unit": "fold over baseline"}]}]}
